We go through six compounds from patent US20250057865A1, “ANTIVIRAL SUPPLEMENT FORMULATIONS FOR HERPESVIRUS INFECTIONS” (priority 2023, published 2025).

For data set [1] the following is noted: adults; cited from earlier work.
For another data set, the system named is HSV-2-Luc. Nature of the data set: microbe, parasite or virus in culture. Format: cell-based, herpes simplex virus 2. The note with it: for SI (CC50/EC50): Table 10, HSV2, buffered medium; for efficacy against HSV-2 (in words): ARPE-19, 24 h post-infection; for EC50: Human alphaherpesvirus 2, ARPE-19, 24 h, 24 h. The protocol:
(§1) Next, cells were infected at a MOI of 0.05 with either HSV-1 R8411 or HSV-2-Luc, both which expresses firefly luciferase, in either standard DMEM medium (10% FBS) or standard DMEM medium (10% FBS) buffered with 3.024 g/L sodium bicarbonate. Treatments were prepared in the different medium conditions and added at the time of infection. All assays were imaged at 24 h post-infection and/or treatment. The compounds tested for this experiment included: Test Composition in unbuffered medium, Test Composition in buffered medium, acyclovir in unbuffered medium and acyclovir in buffered medium. All graphs, EC50, CC50, and CC50/EC50 calculations were performed using GraphPad software based on Lysine equivalent concentrations.
(§2) HSV-1 or HSV-2 infected cells were measured by bioluminescence imagining in the dose-response assay. Each plate contained a set of untreated wells in each media condition (unbuffered or buffered) to be used as baseline. Test composition concentrations ranged from 3.2 μM to 50 mM in a 1:5 dilution series. Acyclovir concentrations ranged from 0.00256 to 40 μM in a 1:5 dilution series.
(§3) Assays were performed as previously described. […] Next, cells were infected at a MOI of approximately 0.05 with either HSV-1 R8411 or HSV-2 MS-Luciferase, both which expresses firefly luciferase, in DMEM (10% FBS) buffered with 3.024 g/L sodium bicarbonate. Antiviral compounds were prepared in the buffered media, added at the time of infection, and remained for the duration of the assay. Both HSV1 and HSV2 cultures were scanned at 24 h post-infection. Each plate contained untreated wells as a baseline for comparison. The solutions evaluated included original Test Composition and various sets of its components, as well as acyclovir (ACV; control). The table below includes a breakdown of all the different component formulations. Graphs were produced, EC50, and CC50 calculations were performed using GraphPad. Concentrations for Test Composition and its components ranged from 3.2 μM to 50 mM in a 1:5 dilution series. Acyclovir concentrations ranged from 0.00256 to 40 μM in a 1:5 dilution series.

The test system of a further data set is HSV-1 R8411. Nature of the data set: microbe, parasite or virus in culture. It counts as cell-based, herpes simplex virus 1. The note with it: for SI (CC50/EC50): Table 10, HSV1, buffered medium; for efficacy against HSV-1 (in words): ARPE-19, 24 h post-infection; for EC50: Human alphaherpesvirus 1, ARPE-19, 24 h, 24 h. On the procedure:
as §1, §2, §3

Another data set relates to HCMV-eGFP-fLuc. Briefly: HCMV bioluminescence dose-response assay in HFFs. It counts as cell-based, human cytomegalovirus. The note with it: unbuffered and buffered medium. The protocol: (§4) VZV- or HCMV-infected cells were measured by bioluminescence imagining in the efficacy or dose-response assay. Assays were performed as previously described, with a few modifications. […] Next, cells were infected at a MOI of approximately 0.05 with either VZV-ORF57-Luc or HCMV-eGFP-fLuc, both which expresses firefly luciferase, in either standard DMEM (10% FBS) or DMEM (10% FBS) buffered with 3.024 g/L sodium bicarbonate.
(§5) Antiviral Test Compositions were prepared in the two media, added at the time of infection, and remained for the duration of the assay. VZV cultures were scanned at 72 h post-infection, and HCMV cultures were scanned at 7 days post-infection. Each plate contained untreated wells in each media condition (unbuffered or buffered) as a baseline. Test Composition in unbuffered medium, Test Composition in buffered medium, cidofovir positive control (CDV; for VZV) or ganciclovir positive control (GCV; for HCMV) in unbuffered medium, and CDV (for VZV) or GCV (for HCMV) in buffered medium. All graphs, EC50, and CC50 calculations were performed using GraphPad. Test Composition concentrations ranged from 3.2 μM to 50 mM in a 1:5 dilution series based on Lysine concentrations. Cidofovir concentrations ranged from 0.00128 to 20 μM in a 1:5 dilution series. Ganciclovir concentrations ranged from 0.0064 to 100 μM in a 1:5 dilution series.

Data set [2] in a line: in vitro. The note with it: human, human foreskin fibroblasts (HFFs).
Experimental: (§6) For the cell effect in absence of virus assay, ARPE-19 cells or HFFs were seeded into 96-well plates and grown for 72 h as described above. Cells were treated with Test Composition in either unbuffered or buffered medium ranging from 1 μM to 100 mM (1:10 dilution). Cidofovir was tested in a range from 0.001 to 100 μM (1:10 dilution). Ganciclovir was tested in a range from 0.002 to 200 μM (1:10 dilution). ARPE-19 cells were treated with Test Composition or Cidofovir for 72 h, then cells were stained with Neutral Red dye and absorbance was measured at 540 nm. HFFs were treated with original Test Composition or Ganciclovir for 7 d, then cells were stained with Neutral Red dye and absorbance was measured at 540 nm.
Data set [3] concerns human foreskin fibroblasts (HFFs). Particulars: Buffered DMEM, 7 d.
Experimental: as §6
The conditions of data set [4]: in vivo; cited from earlier work.
In the next data set the test system is VZV-ORF57-Luc. Nature of the data set: microbe, parasite or virus in culture. It counts as cell-based, varicella zoster virus. The note with it: for EC50: Human alphaherpesvirus 3, ARPE-19, 72 h, 72 h. The protocol:
as §4, §5

Data set [5] in a line: Cell effect in absence of virus assay, ARPE-19 cells, 72 h, Neutral Red. Format: cell-based. The note with it: human, ARPE-19 cells, ARPE-19, Unbuffered DMEM.
A further data set concerns ARPE-19 cells. Described as above. Format: cell-based. Particulars: ARPE-19, Buffered DMEM.
Data set [6] can be described thus: in vitro. Format: cell-based. The note with it: human, Table 10 HSV1 half, ARPE-19, buffered medium. On the procedure: as §3

Take `Cc1ncc(CO)c(CO)c1O` [Vitamin B6, Pyridoxine]: in data set [1], the intake usually safe entry is reported as “up to 200 mg per day”.

Consider `Cl.NCCCC[C@H](N)C(=O)O` [Solution 2, L-lysine monohydrochloride], for which the “rank of efficacy among test solutions 1-11 against HSV2” value with HSV-2-Luc (ARPE-19, buffered medium) was “least effective”. Besides, the entries for the “SI (CC50/EC50)” value with HSV-2-Luc and in the data set with HSV-1 R8411 were 2.5 and 5, respectively. In addition, in the data set on HSV-1 R8411 (ARPE-19, buffered medium), the “rank of efficacy among test solutions 1-11 against HSV1” value is “least effective”.

Take `Nc1nc(O)c2ncn(COC(CO)CO)c2n1` [Ganciclovir, ganciclovir]: in the data set with HCMV-eGFP-fLuc, the “efficacy against HCMV (in words)” value is recorded as “not effective”. Further, the CC50 at 7 d in the data set “in vitro [2]” is over 200 µM. Besides, the CC50 in [3] was over 200 µM.

`CC(C)[C@H](N)C(=O)OCCOCn1cnc2c(=O)[nH]c(N)nc21` [Valacyclovir]: the fraction eliminated renally in data set [4] is reported as 89%.

Consider `Nc1ccn(C[C@@H](CO)OCP(=O)(O)O)c(=O)n1` [Cidofovir, cidofovir], for which, in the data set on VZV-ORF57-Luc (ARPE-19, unbuffered and buffered medium), the “efficacy against VZV (in words)” value is listed as “effective”. Further, the EC50 is 19 µM in the data set on VZV-ORF57-Luc (VZV, ARPE-19, Buffered DMEM) and 1.72 µM with VZV-ORF57-Luc (VZV, ARPE-19, Unbuffered DMEM). In addition, the “increase of EC50 in buffered medium versus unbuffered medium” value with VZV-ORF57-Luc (VZV) was 10 fold. In addition, the “SI (CC50/EC50)” value in the data set on VZV-ORF57-Luc (VZV, Buffered DMEM) came to 5.3; in the data set with VZV-ORF57-Luc (VZV, Unbuffered DMEM) it was 58.2. For the same compound, the CC50 at 72 h in data set [5] is over 100 µM. In the data set with ARPE-19 cells, the CC50 was over 100 µM.

On to `Nc1nc2c(ncn2COCCO)c(=O)[nH]1` [Acyclovir, acyclovir], for which the “efficacy against HSV-2 (in words)” value with HSV-2-Luc is reported as “worked”; in the data set with HSV-2-Luc (listed as acyclovir) it was “effective”. Further, the EC50 in the data set on HSV-2-Luc (HSV-2, ARPE-19, Buffered DMEM) is 6.66 µM; in the data set on HSV-2-Luc (HSV-2, ARPE-19, Unbuffered DMEM) it was 7.89 µM; with HSV-2-Luc (Table 10, HSV2, ARPE-19, buffered medium, curves plotted as L-lysine HCl or acyclovir concentration (uM), FIG. 6), 33.1 µM; in the data set with HSV-1 R8411 (HSV-1, ARPE-19, Buffered DMEM (sodium bicarbonate)) it was 0.156 µM; with HSV-1 R8411 (HSV-1, ARPE-19, Unbuffered DMEM, Lysine equivalent concentration), 0.645 µM; in the data set with HSV-1 R8411 (Table 10, HSV1, ARPE-19, buffered medium, curves plotted as L-lysine HCl or acyclovir concentration (uM), FIG. 5), 0.225 µM. Besides, the “SI (CC50/EC50)” value turned out to be 3.02 in the data set on HSV-2-Luc and 444.44 in the data set with HSV-1 R8411. The same compound displayed a CC50 at 24 h in “in vitro [6]” of at least 100 µM. In addition, the “efficacy against HSV-1 (in words)” value in the data set on HSV-1 R8411 is recorded as “worked”; with HSV-1 R8411 (listed as acyclovir) it was “effective”.
